Laboratory results reported in patent US20260202298A1, “HIGH-THROUGHPUT MEASUREMENT OF P[…] PARTICLE COUNTS, DISTRIBUTIONS, AND COMPOSITION” (priority 2021, published 2026).

Columns and labels:
[1] = system: A/PR8/34 or A/Ud/72 (with X31 or A/Aichi/68 HA) IAV; assay type: cell-based, influenza A virus in human lung epithelial cell line Calu3; details: FIG. 12B, PR8 and XUd viruses
[2] = system: XUd (WT1) or PR8 (WT2) influenza viruses; assay type: cell-based, influenza virus in MDCK cells; details: at higher concentrations

| SMILES | virion yield vs. fraction of filamentous particles produced [1] | effect on virion yield [2] | size of individual virus particles [2] | virion aggregation [2] |
| --- | --- | --- | --- | --- |
| COC(=O)OCOc1c2n(ccc1=O)N([C@@H]1c3ccccc3SCc3c1ccc(F)c3F)[C@@H]1COCCN1C2=O [baloxavir, baloxavir marboxil] | lower virion yields are associated with increased fraction of filamentous particles produced |  |  |  |
| CCOC(=O)C1=C[C@@H](OC(CC)CC)[C@H](NC(C)=O)[C@@H](N)C1 [oseltamivir] |  | reduces virion yield | remains enriched in spherical particles | induces virion aggregation |
